Source: patent publication US6525001B1, “Substituted pyrimidine and pyridine herbicides” (Mid-American Commercialization Corporation, priority 1997, dated 2003)

Columns and labels:
Assay type in all cases: in vivo
Set-up in all cases: key: 0 is no effect; 10 is complete control
[1] = tested on: bedstraw (Galium aparine); experiment: Test B pre-/postemergence
Outline: (§1)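 Seeds were planted and sprayed preemergence, while plants at 2 to 18 cm (1- to 4-leaf stage) were sprayed postemergence at the same time, with test chemical in a non-phytotoxic solvent mixture containing surfactant. After twelve to sixteen days in a greenhouse, injury was rated visually against untreated controls on a 0–10 scale.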

[2] = tested on: blackgrass (Alopecurus myosuroides); experiment: Test B pre-/postemergence
Outline: as §1

[3] = tested on: broadleaf signalgrass (Brachiaria decumbens); experiment: Test B pre-/postemergence
Outline: as §1

[4] = tested on: cocklebur (Xanthium strumarium); experiment: Test B pre-/postemergence
Outline: as §1

[5] = tested on: corn (Zea mays); experiment: Test B pre-/postemergence
Outline: as §1

[6] = tested on: crabgrass (Digitaria sanguinalis); experiment: Test B pre-/postemergence
Outline: as §1

[7] = tested on: giant foxtail (Setaria faberii); experiment: Test B pre-/postemergence
Outline: as §1

[8] = tested on: momingglory (Ipomoea hederacea); experiment: Test B pre-/postemergence
Outline: as §1

[9] = tested on: pigweed (Amaranthus retroflexus); experiment: Test B pre-/postemergence
Outline: as §1

[10] = tested on: purple nutsedge (Cyperus rotundus); experiment: Test B pre-/postemergence
Outline: as §1

[11] = tested on: rape (Brassica napus); experiment: Test B pre-/postemergence
Outline: as §1

[12] = tested on: soybean (Glycine max); experiment: Test B pre-/postemergence
Outline: as §1

[13] = tested on: sugar beet (Beta vulgaris); experiment: Test B pre-/postemergence
Outline: as §1

[14] = tested on: velvetleaf (Abutilon theophrasti); experiment: Test B pre-/postemergence
Outline: as §1

[15] = tested on: wheat (Triticum aestivum); experiment: Test B pre-/postemergence
Outline: as §1

[16] = tested on: wild oat (Avena fatua); experiment: Test B pre-/postemergence
Outline: as §1

[17] = tested on: bamyardgrass (Echinochloa crus-galli); experiment: Test B flood test
Outline: (§2)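 Plants were grown to the 2-leaf stage before treatment with test chemical, then held in a greenhouse for twelve to sixteen days. Injury was visually rated against untreated controls on a 0–10 scale, where 0 is no effect and 10 is complete control.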

[18] = tested on: duck salad (Heteranthera limosa); experiment: Test B flood test
Outline: as §2

[19] = tested on: rice (Oryza sativa); experiment: Test B flood test
Outline: as §2

[20] = tested on: smallflower flatsedge (Cyperus difformis); experiment: Test B flood test
Outline: as §2

[21] = Preemergence, Rate 62 g/ha, scale of 0 to 10
[22] = Rate 62 g/ha, Postemergence (flood test)
[23] = Rate 125 g/ha, Postemergence section (flood test species)
[24] = Rate 250 g/ha, Postemergence (flood test species)

SMILES: O=C(c1cccc(C(F)(F)F)c1)c1ccnc(-n2ccc(C(F)(F)F)n2)n1 [Compound 70]
- Plant response rating, Bedstraw [1, 21]: 0
- Bedstraw plant response rating ([1]; Rate 62 g/ha, Postemergence): 1
- Bedstraw plant response rating ([1]; Rate 125 g/ha, Postemergence): 1
- Plant response rating, Bedstraw ([1]; Rate 125 g/ha, Preemergence): 0
- Plant response rating, Bedstraw ([1]; Rate 250 g/ha, Postemergence): 1
- Plant response rating, Bedstraw ([1]; Rate 250 g/ha, Preemergence): 0
- Plant response rating, Blackgrass [2, 21]: 0
- Blackgrass plant response rating ([2]; Rate 62 g/ha, Postemergence): 0
- Blackgrass plant response rating ([2]; Rate 125 g/ha, Postemergence): 0
- Plant response rating, Blackgrass ([2]; Rate 125 g/ha, Preemergence): 0
- Plant response rating, Blackgrass ([2]; Rate 250 g/ha, Postemergence): 0
- Plant response rating, Blackgrass ([2]; Rate 250 g/ha, Preemergence): 0
- B. signalgrass plant response rating ([3]; Rate 62 g/ha, Postemergence): 0
- B. signalgrass plant response rating ([3]; Rate 62 g/ha, Preemergence): 0
- B. signalgrass plant response rating ([3]; Rate 125 g/ha, Postemergence): 0
- Plant response rating, B. signalgrass ([3]; Rate 125 g/ha, Preemergence): 0
- Plant response rating, B. signalgrass ([3]; Rate 250 g/ha, Postemergence): 1
- Plant response rating, B. signalgrass ([3]; Rate 250 g/ha, Preemergence): 0
- Plant response rating, Cocklebur [4, 21]: 0
- Cocklebur plant response rating ([4]; Rate 62 g/ha, Postemergence): 1
- Cocklebur plant response rating ([4]; Rate 125 g/ha, Postemergence): 2
- Plant response rating, Cocklebur ([4]; Rate 125 g/ha, Preemergence): 0
- Plant response rating, Cocklebur ([4]; Rate 250 g/ha, Postemergence): 2
- Plant response rating, Cocklebur ([4]; Rate 250 g/ha, Preemergence): 0
- Plant response rating, Corn [5, 21]: 0
- Corn plant response rating ([5]; Rate 62 g/ha, Postemergence): 1
- Corn plant response rating ([5]; Rate 125 g/ha, Postemergence): 1
- Plant response rating, Corn ([5]; Rate 125 g/ha, Preemergence): 0
- Plant response rating, Corn ([5]; Rate 250 g/ha, Postemergence): 2
- Plant response rating, Corn ([5]; Rate 250 g/ha, Preemergence): 0
- Plant response rating, Crabgrass [6, 21]: 0
- Crabgrass plant response rating ([6]; Rate 62 g/ha, Postemergence): 0
- Crabgrass plant response rating ([6]; Rate 125 g/ha, Postemergence): 1
- Plant response rating, Crabgrass ([6]; Rate 125 g/ha, Preemergence): 0
- Plant response rating, Crabgrass ([6]; Rate 250 g/ha, Postemergence): 1
- Plant response rating, Crabgrass ([6]; Rate 250 g/ha, Preemergence): 0
- Plant response rating, Giant foxtail [7, 21]: 0
- Giant foxtail plant response rating ([7]; Rate 62 g/ha, Postemergence): 0
- Giant foxtail plant response rating ([7]; Rate 125 g/ha, Postemergence): 0
- Plant response rating, Giant foxtail ([7]; Rate 125 g/ha, Preemergence): 0
- Plant response rating, Giant foxtail ([7]; Rate 250 g/ha, Postemergence): 0
- Plant response rating, Giant foxtail ([7]; Rate 250 g/ha, Preemergence): 0
- Plant response rating, Morningglory [8, 21]: 0
- Morningglory plant response rating ([8]; Rate 62 g/ha, Postemergence): 1
- Morningglory plant response rating ([8]; Rate 125 g/ha, Postemergence): 1
- Plant response rating, Morningglory ([8]; Rate 125 g/ha, Preemergence): 0
- Plant response rating, Morningglory ([8]; Rate 250 g/ha, Postemergence): 2
- Plant response rating, Morningglory ([8]; Rate 250 g/ha, Preemergence): 0
- Plant response rating, Redroot pigweed [9, 21]: 0
- Redroot pigweed plant response rating ([9]; Rate 62 g/ha, Postemergence): 0
- Redroot pigweed plant response rating ([9]; Rate 125 g/ha, Postemergence): 2
- Plant response rating, Redroot pigweed ([9]; Rate 125 g/ha, Preemergence): 0
- Plant response rating, Redroot pigweed ([9]; Rate 250 g/ha, Postemergence): 3
- Plant response rating, Redroot pigweed ([9]; Rate 250 g/ha, Preemergence): 0
- Plant response rating, Nutsedge [10, 21]: 0
- Nutsedge plant response rating ([10]; Rate 62 g/ha, Postemergence): 0
- Nutsedge plant response rating ([10]; Rate 125 g/ha, Postemergence): 0
- Plant response rating, Nutsedge ([10]; Rate 125 g/ha, Preemergence): 0
- Plant response rating, Nutsedge ([10]; Rate 250 g/ha, Postemergence): 0
- Plant response rating, Rape [11, 21]: 0
- Rape plant response rating ([11]; Rate 62 g/ha, Postemergence): 0
- Rape plant response rating ([11]; Rate 125 g/ha, Postemergence): 1
- Plant response rating, Rape ([11]; Rate 125 g/ha, Preemergence): 0
- Plant response rating, Rape ([11]; Rate 250 g/ha, Postemergence): 1
- Plant response rating, Rape ([11]; Rate 250 g/ha, Preemergence): 0
- Plant response rating, Soybean [12, 21]: 0
- Soybean plant response rating ([12]; Rate 62 g/ha, Postemergence): 1
- Soybean plant response rating ([12]; Rate 125 g/ha, Postemergence): 2
- Plant response rating, Soybean ([12]; Rate 125 g/ha, Preemergence): 0
- Plant response rating, Soybean ([12]; Rate 250 g/ha, Postemergence): 3
- Plant response rating, Soybean ([12]; Rate 250 g/ha, Preemergence): 0
- Plant response rating, Sugarbeets [13, 21]: 0
- Sugarbeets plant response rating ([13]; Rate 62 g/ha, Postemergence): 0
- Sugarbeets plant response rating ([13]; Rate 125 g/ha, Postemergence): 1
- Plant response rating, Sugarbeets ([13]; Rate 125 g/ha, Preemergence): 0
- Plant response rating, Sugarbeets ([13]; Rate 250 g/ha, Postemergence): 2
- Plant response rating, Sugarbeets ([13]; Rate 250 g/ha, Preemergence): 0
- Plant response rating, Velvetleaf [14, 21]: 0
- Velvetleaf plant response rating ([14]; Rate 62 g/ha, Postemergence): 0
- Velvetleaf plant response rating ([14]; Rate 125 g/ha, Postemergence): 1
- Plant response rating, Velvetleaf ([14]; Rate 125 g/ha, Preemergence): 0
- Plant response rating, Velvetleaf ([14]; Rate 250 g/ha, Postemergence): 1
- Plant response rating, Velvetleaf ([14]; Rate 250 g/ha, Preemergence): 0
- Plant response rating, Wheat [15, 21]: 0
- Wheat plant response rating ([15]; Rate 62 g/ha, Postemergence): 0
- Wheat plant response rating ([15]; Rate 125 g/ha, Postemergence): 0
- Plant response rating, Wheat ([15]; Rate 125 g/ha, Preemergence): 0
- Plant response rating, Wheat ([15]; Rate 250 g/ha, Postemergence): 0
- Plant response rating, Wheat ([15]; Rate 250 g/ha, Preemergence): 0
- Plant response rating, Wild oats [16, 21]: 0
- Wild oats plant response rating ([16]; Rate 62 g/ha, Postemergence): 0
- Wild oats plant response rating ([16]; Rate 125 g/ha, Postemergence): 0
- Plant response rating, Wild oats ([16]; Rate 125 g/ha, Preemergence): 0
- Plant response rating, Wild oats ([16]; Rate 250 g/ha, Postemergence): 0
- Plant response rating, Wild oats ([16]; Rate 250 g/ha, Preemergence): 0
- Barnyardgrass plant response rating [17, 22]: 0
- Barnyardgrass plant response rating [17, 23]: 0
- Plant response rating, Barnyardgrass [17, 24]: 0
- Ducksalad plant response rating [18, 22]: 0
- Ducksalad plant response rating [18, 23]: 0
- Plant response rating, Ducksalad [18, 24]: 0
- Rice plant response rating [19, 22]: 0
- Rice plant response rating [19, 23]: 0
- Plant response rating, Rice [19, 24]: 0
- S. Flatsedge plant response rating [20, 22]: 0
- S. Flatsedge plant response rating [20, 23]: 0
- Plant response rating, S. Flatsedge [20, 24]: 0
